What all share (assay type): biochemical
Test [1] is described as follows: DPPH free radical neutralization. The following applies: amount required to neutralize 50% of DPPH radicals. (In general: Loss of DPPH colour is used to gauge radical scavenging.)
Text: This methodology is used to assess the IC-50 value, i.e., the amount of active ingredient required to neutralize 50% of the radicals formed in the reaction medium.
This assay is used to assess the active ingredient's ability to decrease the formation of free radicals. A specific radical (DPPH) produces a purple coloring in ethanolic solution. Antioxidant active ingredients capable of donating protons (H^+) decrease the formation of radicals, consequently decreasing the purple coloring.
The nature of test [2]: Lipoperoxidation (liposomes + AAPH, xylenol orange). The note with it: for protection against lipoperoxidation: active ingredient alone, 100 μg/ml (0.01%), 3 hours of reaction. The source says: The methodologies selected for planning and carrying out the tests for the antioxidant efficacy of the complex of the present invention aimed at reproducing the protective effect of membranes (lipids), DNA and proteins, and were fast screening methodologies, such as: • DPPH: the test is based on the reduction reaction of the diphenyl picryl hydrazyl (DPPH) free radical in ethanolic medium, with the raw materials or substances to be analyzed, wherein the DPPH radical is reduced by said substances, altering the tone and enabling the antioxidant protection to be measured. This is a simple assay, commonly used for screening substances, since it measures one of the main mechanisms of antioxidant action—proton donation for stabilization of the DPPH radical. • Lipoperoxidation: in this test, phosphatidylcholine liposomes, which structure resembles the cell membrane since phosphatidylcholine is one of the lipid components of cell membranes, are incubated with the AAPH radical, which is capable of promoting the oxidation of these membranes, forming lipid hydroperoxides. These hydroperoxides promote the oxidation of Fe^2+ to Fe^3+, which reacts with xylenol orange, forming a yellowish compound. The active ingredients incubated with the liposomes decrease the membrane oxidation, consequently decreasing the reaction with xylenol orange and the formation of color. This test provides a result for the % protection against lipoperoxidation, and is closer to the physiological situation, since it mimics the attack to cell membranes. • Protein Oxidation: this experiment uses BSA (bovine serum albumine) as a substrate and a hydroxyl radical generating system (Fenton reaction: H2O2+ iron), which can generate hydroperoxides in the presence of the protein, due to the oxidation of the amino acid side chain. These hydroperoxides promote the oxidation of Fe2+ to Fe3+, which reacts with xylenol orange, forming a yellowish compound. […]

Test [3] can be described thus: ORAC hydrophilic and lipophylic method. The note with it: value printed for comparison with the samples.
Experimental: The system comprises a generating substance of free radical, the AAPH (2,2′-azobis (2-amidinopropane)dihydrochloride) and a fluorescent marker, fluorescein. The antioxidant substance presence in the reaction medium inhibits the decline of the induced fluorescence by the free radical.
The final value is calculated by the regression equation between the sample concentration and the area under the decline curve of fluorescence (AUC). Being expressed the result in micromoles equivalent of Trolox®/g of the sample. AUC=1+f1/f0+f2/f0++f3/f0+ . . . +fn/f0 • f0: initial fluorescence t=0 minutes • fn: fluorescence in each sample in t=n minutes
Hexane (1 mg/mL) was added in the individual samples, the samples were agitated during 3 minutes in vortex and centrifuged during two minutes in 700 g. The supernatant was removed, evaporated under nitrogen flow and analyzed as lipophylic portion. The soil body was analyzed as hydrophilic fraction.
The latter was solubilized in acetone:water (50% v/v), mixed in the ratio indicated for each one of the mixtures and appropriately diluted in 75 nM phosphate buffer pH 7.0. […] The reading was made each minute for one hour with wave length of excitement 485/20 nm and emission 528/20 nm (reading of plates—Multi Detection microplate reader SynergyBIOTEK). […]

Structures are written as SMILES.

For `CC(C)=CCC/C(C)=C/C=C/C(C)=C/C=C/C(C)=C/C=C/C=C(C)/C=C/C=C(C)/C=C/C=C(\C)CCC=C(C)C` [Lycopene], in test [1], the “IC-50 (mg/ml)” value turned out to be 0.208 mg/mL and the “IC-50 (μg/ml)” value was 208 µg/mL. In addition, in test [2], the protection against lipoperoxidation stood at 25.30%.
For the compound `Cc1c(C)c2c(c(C)c1O)CC[C@@](C)(CCC[C@H](C)CCC[C@H](C)CCCC(C)C)O2` [Tocopherol, alpha-tocopherol], in test [1], the “IC-50 (mg/ml)” value amounted to 0.019 mg/mL and the “IC-50 (μg/ml)” value worked out at 19 µg/mL. Besides, the protection against lipoperoxidation in test [2] is given as 95.53%. In addition, the “concentration of the active ingredient in isolation required for protection similar to the mixture, relative to its concentration in the mixture” value in test [2] (lipoperoxidation, between 60 and 70% protection, mixture 10+10+10 μg/ml) is reported as “at least 5 times higher”.
In the case of `Cc1c(C)c2c(c(C)c1O)CCC(C)(C(=O)O)O2` (centres unmarked) [Trolox®], in test [3], the “antioxidant activity of comparator” value turned out to be 400 µmol/g.

The record behind these values is patent publication US8383168B2, “Antioxidant complex, cosmetic and pharmaceutical compositions containing said complex and use of said complex” (Natura Cosmeticos S.A., priority 2008, dated 2013).
